# Measured values published in patent US20050107405A1, “Pharmaceutical composition for alleviating pain or spasticity in a patient suffering from spinal cord injury” (priority 2003, published 2005).
# Entries after “also recorded” stand apart in the source; their conditions may differ.
# Legend:
# [1] = test system: pain or spasticity in patients suffering from spinal cord injury; assay: Administration of sildenafil citrate (50 mg VIAGRA tablet) to three male patients with spinal cord injury; assay type: in vivo, human; settings: for Effect of alleviating pain or spasticity caused by spinal cord injury (in words): patients with spinal cord injury (Patients 1 to 3), comparison with customary analgesics
# Experimental: Sildenafil citrate was administered to three male patients of ages 30-73, who have sexual dysfunction and somatic pain. Patient 1: 7th thoracic vertebrae injury and complete paraplegia. […] Erectile dysfunction. Every day behavior: Wheel chair. Patient 2: 12th thoracic vertebrae injury and complete paraplegia. […] Erectile dysfunction. Every day behavior: Wheel chair. Patient 3: 6th cervical vertebrae injury and incomplete quadriplegia. They were constantly suffering from limb pain and spasticity. Erectile dysfunction. Every day behavior: Wheel chair. Patients 1 to 3 were dosed with a 50 mg tablet of […]® in the unit dosage form when feeling pain or spasticity.
# nociception = settings: alone and with diclofenac; cited from earlier work
# [2] = test system: morphine-induced antinociception; settings: with morphine; cited from earlier work
# peripheral nociception = settings: potentiated by sodium nitroprasside and L-arginine; cited from earlier work
# [3] = Patient 1, Th7 complete paraplegia, 50 mg tablet
# [4] = Patient 1, Th7 complete paraplegia, 50 mg tablet, monocitrate
# [5] = Patient 2, Th12 complete paraplegia, 50 mg tablet, monocitrate
# [6] = Patient 3, C6 incomplete quadriplegia, 50 mg tablet, monocitrate
smiles,measurement,setting,value
O=C(O)Cc1ccccc1Nc1c(Cl)cccc1Cl [diclofevac sodium],Effect of alleviating pain or spasticity caused by spinal cord injury (in words),[1],no effects of alleviating pain or spasticity could be found
same,Effect of alleviating pain or spasticity caused by spinal cord injury (in words),[1]; listed as Voltaren,does not have any analgesic effects
CC(C(=O)O)c1ccc(CC2CCCC2=O)cc1 (stereo not shown) [loxoprofen sodium],Effect of alleviating pain or spasticity caused by spinal cord injury (in words),[1],no effects of alleviating pain or spasticity could be found
same,Effect of alleviating pain or spasticity caused by spinal cord injury (in words),[1]; listed as Loxonin,does not have any analgesic effects
"CCCc1nn(C)c2c(=O)[nH]c(-c3cc(S(=O)(=O)N4CCN(C)CC4)ccc3OCC)nc12.O=C(O)CC(O)(CC(=O)O)C(=O)O [sildenafil citrate, 1-[[3-(6,7-dihydro-1-methyl-7-oxo-3-propyl-1H-pyrazolo[4,3-d]pyrimidin-5-yl)-4-ethoxyphenyl]sulfonyl]-4-methylpiperazine monocitrate]",Emerging Time of Effect After Administration,[1]; [3],30 min
same,Time until side effect (light heat sensation) disappeared,[1]; [3],two to three
same,Duration of Effects,[1]; [4],around half; also recorded: half day
same,Improvement of Erectile Dysfunction,[1]; [4],improved and Yes
same,Side Effects,[1]; [4],Light heat sensation
same,Effects of alleviating pain or spasticity,"[1]; Patient 2, Th12 complete paraplegia, 50 mg tablet",by about 30%
same,Duration of Effects,[1]; [5],around one; also recorded: about one day
same,Emerging Time of Effect After Administration,[1]; [5],around one; also recorded: one hour
same,Improvement of Erectile Dysfunction,[1]; [5],not improved and No
same,Side Effects,[1]; [5],No side effect was observed and No
same,Duration of Effects,[1]; [6],5 to 6 h
same,Improvement of Erectile Dysfunction,[1]; [6],improved and No
same,Side Effects,[1]; [6],No side effect was observed and No
same,Effect of alleviating pain or spasticity caused by spinal cord injury (in words),[1],significantly alleviates the pain or spasticity
same,Alleviation of the pain or spasticity,"[1]; summary over Patients 1 to 3, 50 mg",20 to 50%
"CCCc1nn(C)c2c(=O)[nH]c(-c3cc(S(=O)(=O)N4CCN(C)CC4)ccc3OCC)nc12 [sildenafil, 5-[2-ethoxy-5-(4-methyl-1-piperazinylsulphonyl)phenyl]-1-methyl-3-n-propyl-1,6-dihydro-7H-pyrazolo[4,3-d]pyrimidin-7-one]",Antinociceptive activity,nociception,"produces antinociceptive activity, and increases that of diclofenac"
same,Effect on morphine-induced antinociception,[2],significantly increases the morphine-induced antinociception
same,Antinociception,peripheral nociception,induces antinociception
